From patent publication US20240109937A1, “BINDING PEPTIDES AND USES THEREOF” (The Johns Hopkins University, priority 2021, published 2024)

Legend:
HMGB1 = HMGB1 cytosolic/nuclear levels in ISO/Ca2+-treated ES-CMs; format: cell-based, mouse; conditions: ISO/Ca2+-treated Dsg2^mut/mut ES-CMs, 7 days, peptide
Method: Mouse embryonic stem cells (ESs) were maintained and differentiated, and the absence of mycoplasma contamination was confirmed prior to experimental studies. Briefly, mouse ESs from both WT and Dsg2^mut/mut mice were derived from E3.5 embryos and maintained on gelatin-coated dishes in maintenance medium (Glasgow minimum essential medium supplemented with 10% fetal bovine serum and 3 μM Chir99021 and 1 μM PD98059 or 1000 U/ml ESGRO; Millipore), Glutamax, sodium pyruvate, and MEM non-essential amino acids (Thermo Fisher Scientific). For cardiomyocyte (CM) differentiation, ESs were plated in IMDM/Ham's F12 (Cellgro, at 3:1) supplemented with N2, B27, penicillin/streptomycin, 2 mM GlutaMAX, 0.05% BSA, 5 ng/ml L-ascorbic acid (Sigma-Aldrich), and α-monothioglycerol (MTG; Sigma-Aldrich) at a final density of 100,000 cells/ml to allow spheroid formation. After 48 hours, embryoid bodies were collected and transferred to ultra-low attachment plastic surface and induced for 40 hours with Activin A and Bmp4 (R&D Systems). Cells were then dissociated and plated as monolayers for 48 hours in the presence of 10 μM XAV to allow cardiomyocyte differentiation. The resulting ES-CMs were cultured 45 days before experimental procedures were performed. […]

Dsg2^mut/mut ES-CMs = experiment: FACS analysis of apoptosis (AnnexinV/propidium iodide) in ISO/Ca2+-treated ES-CMs; format: cell-based, mouse; conditions: 7 days, 5 μM or 25 μM peptide
Method: Mouse embryonic stem cells (ESs) were maintained and differentiated, and the absence of mycoplasma contamination was confirmed prior to experimental studies. Briefly, mouse ESs from both WT and Dsg2^mut/mut mice were derived from E3.5 embryos and maintained on gelatin-coated dishes in maintenance medium (Glasgow minimum essential medium supplemented with 10% fetal bovine serum and 3 μM Chir99021 and 1 μM PD98059 or 1000 U/ml ESGRO; Millipore), Glutamax, sodium pyruvate, and MEM non-essential amino acids (Thermo Fisher Scientific). For cardiomyocyte (CM) differentiation, ESs were plated in IMDM/Ham's F12 (Cellgro, at 3:1) supplemented with N2, B27, penicillin/streptomycin, 2 mM GlutaMAX, 0.05% BSA, 5 ng/ml L-ascorbic acid (Sigma-Aldrich), and α-monothioglycerol (MTG; Sigma-Aldrich) at a final density of 100,000 cells/ml to allow spheroid formation. After 48 hours, embryoid bodies were collected and transferred to ultra-low attachment plastic surface and induced for 40 hours with Activin A and Bmp4 (R&D Systems). Cells were then dissociated and plated as monolayers for 48 hours in the presence of 10 μM XAV to allow cardiomyocyte differentiation. […] (4) After 7 days of treatment, ES-CMs were stained with AnnexinV in a buffer containing 10 mM HEPES (pH 7.4), 140 mM NaCl, 2.5 mM CaCl2, followed by the addition of 1 mg/ml propidium iodide and analyzed by flow cytometry.

tAIF = experiment: Nuclear import and localization of tAIF in ISO/Ca2+-treated ES-CMs; format: cell-based, mouse; conditions: ISO/Ca2+-treated Dsg2^mut/mut ES-CMs, 7 days
Method: Mouse embryonic stem cells (ESs) were maintained and differentiated, and the absence of mycoplasma contamination was confirmed prior to experimental studies. Briefly, mouse ESs from both WT and Dsg2^mut/mut mice were derived from E3.5 embryos and maintained on gelatin-coated dishes in maintenance medium (Glasgow minimum essential medium supplemented with 10% fetal bovine serum and 3 μM Chir99021 and 1 μM PD98059 or 1000 U/ml ESGRO; Millipore), Glutamax, sodium pyruvate, and MEM non-essential amino acids (Thermo Fisher Scientific). […]
All myocardium (sedentary and exercised mouse cohorts and patient myocardial biopsies) were formalin-fixed and paraffin-embedded (FFPE). […] Following three additional washes, ProLong Gold Antifade Mountant with DAPI (Thermofisher, 936931) were applied, and slides were coverslipped, and immunoreactive signal was detected via laser scanning microscopy (Zeiss LSM 510 Meta). […]
Following immunostaining, AIF-fluorescence and nuclear fluorescence (DAPI) were detected via laser scanning microscopy (Zeiss LSM 510 Meta) via a sequential fashion to avoid crosstalk between fluorophores. Merged images were obtained using Zeiss LSM software, and approximately 3-10 Regions of Interest (ROIs) were assessed per condition (mouse myocardium and patient myocardial biopsies). […]

PPIA = PPIA (Homo sapiens, UniProt P62937); conditions: read-out: KD, affinity to PPIA-binding; cited from earlier work
HT-22 cells = conditions: cited from earlier work

PPIA, sequence (P62937 whole entry, species assumed): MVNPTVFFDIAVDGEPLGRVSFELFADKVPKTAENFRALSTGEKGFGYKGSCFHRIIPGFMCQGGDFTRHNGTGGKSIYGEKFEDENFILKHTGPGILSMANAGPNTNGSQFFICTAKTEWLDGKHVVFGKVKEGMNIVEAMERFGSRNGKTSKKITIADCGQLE

Substance | increased cytosolic and decreased nuclear HMGB1 levels (HMGB1) | apoptosis (FACS) (Dsg2^mut/mut ES-CMs) | PPIA-mediated nuclear import of tAIF (immunoblot) (tAIF) | tAIF nuclear localization (immunostaining) (tAIF) | Kd (PPIA) [µM] | neuroprotective effects in HT-22 cells during the oxidative stress (HT-22 cells)
NH2-GRKKRRQRRR(βAla)QSVGVSSGKLLIKLKDGRKVETDHI-NH2 (GRKKRRQRRRAQSVGVSSGKLLIKLKDGRKVETDHI; C-terminal amide; MOD_RES (11)..(11) 1,2-dihydro-3(6h)-pyridinone beta-alanine) [TAT-AIF (370-394), Linear peptide, 38 amino acids long, N-terminal TAT fragment for cell uptake] | prevented | attenuated | precluded | precluded | 12 | –
Ac-CIKLKDGRKVC-NH2 [AIF (381-389) ox, Cyclic peptide, 11 amino acids long] | – | – | – | – | – | provides neuroprotective
